Measured values published in patent US20030208067A1, “Inhibitors of protein kinase for the treatment of disease” (priority 2001, published 2003).

Experiments:
CDK5 complexed with p25 = CDK5 complexed with p25 (Homo sapiens, UniProt Q00535); test: Cyclin dependent kinase activity assay (33P peptide phosphorylation); format: biochemical; conditions: 0.1 mM ATP, read-out: CDK 5 Activity*
Method: (§1) The assay of cyclin dependent kinase activity was determined by monitoring the phosphorylation of a synthetic peptide, PKTPKKAKKLRRR. The assay mixture contained 0.1 mM cold ATP, ^33P-γ-ATP (2000-4000 cpm/μL), 0.1 mM peptide, 1 mM DDt, and 10 mM MgCl2 in 100 mM HEPES buffer pH 7.4. The assay mixture, along with inhibitor and CDK enzyme (0.3-0.4 U/mL; either CDK5 complexed with p25, CDK2 complexed with complexed with cyclin A), was mixed together in a microtiter plate in a final volume of 40 μL, sealed and incubated for 2 hours at 30° C. Following incubation, a 15 μL aliquot was added to a Whatman P81 filtration plate containing 100 μL 0.5% phosphoric acid. This mixture was allowed to stand for 5 minutes prior to filtration on a vacuum manifold. The filter plate was washed with 5 successive additions of 300 μL 0.5% phosphoric acid. The filtration plate was air dried for 10 minutes before sealing the bottom. After addition of scintillation fluid to the sealed plate, phosphorylated peptide was quantified in a scintillation counter.

KDR = KDR (Homo sapiens, UniProt P35968); test: Enzyme assay for EGFR2 (KDR); format: biochemical; conditions: 50 nM KDR; 500 μM ATP
Method: Enzyme assays for IC50 determinations were performed in 96-well titer plates, in a total reaction volume of 50 μL. Each reaction contained 1.5 μL of appropriate dilutions of inhibitor, 50 mM Hepes, pH 7.4, 1 mM DTT, 10 mM magnesium chloride, 2 mM phospho-poly(E4Y) (Sigma Chemical Company), 500 μM unlabeled ATP, 0.0025 μM [^33P]ATP (Amersham Pharmacia Biotech), and 50 nM KDR. All components except KDR were added to the wells, and the reaction was started by the addition of the enzyme. The reactions were mixed and incubated at room temperature for 1 hr, after which the reactions were quenched by the addition of 50 μL of 8% phosphoric acid. At this point, 90 μL aliquots of the samples were applied to positively charged DEAE 96-well filter plates (Millipore Corporation MADENOB10). The plates were incubated for 30 min at room temperature. The samples were aspirated and the wells were washed 3 times with 200 μL of 0.5% phosphoric acid. To each well, 50 μL of scintillation cocktail was added and counted for 60 sec in a TopCount microplate scintillation counter (Packard Instrument Company). The concentration of a compound that inhibited the activity of KDR by 50% (IC50) was determined based its inhibition curve.

[1] = biological target: CDK2 complexed with cyclin A (Homo sapiens, UniProt P24941); test: Cyclin dependent kinase activity assay (33P peptide phosphorylation); format: biochemical; conditions: 0.1 mM ATP, read-out: CDK 2 Activity*
Method: as §1

panel of protein kinases = test: Specificity studies, summary in words; format: biochemical; conditions: against a panel of protein kinases
Method: The assays of kinases were determined by monitoring the phosphorylation of appropriate substrates. The assay mixture contained 0.1 mM cold ATP ^33P-γ-ATP (2000-4000 cpm/μL), 0.1 mM substrate, 1 mM DTT, and 10 mM MgCl2 in 100 mM HEPES buffer pH 7.4. The assay mixture, along with inhibitor and kinase enzyme (0.3-0.4 U/mL), was mixed together in a microtiter 96-well plate in a final volume of 40 μL, sealed and incbated for 1 hour at 30° C. Following incubation, a 15 μL aliquot was added to a Whatman P81 filtration plate containing 100 μL 0.5% phosphoric acid. This mixture was allowed to stand for 5 minutes prior to filtration on a vacuum manifold. The filter plate was washed with 5 successive additions of 300 μL 0.5% phosporic acid. The filtration plate was air dried for 10 minutes before sealing the bottom. After addition of scintillation fluid to the sealed plate, phosphorylated substrate was quantified in a scintillation counter.

A549/ATCC = test: In vitro tumor cell efficacy test (SRB cell viability); format: cell-based; conditions: Homo sapiens, Non-Small Cell Lung Cancer, 72 hours

Sequence of CDK5 complexed with p25 (Q00535 whole entry): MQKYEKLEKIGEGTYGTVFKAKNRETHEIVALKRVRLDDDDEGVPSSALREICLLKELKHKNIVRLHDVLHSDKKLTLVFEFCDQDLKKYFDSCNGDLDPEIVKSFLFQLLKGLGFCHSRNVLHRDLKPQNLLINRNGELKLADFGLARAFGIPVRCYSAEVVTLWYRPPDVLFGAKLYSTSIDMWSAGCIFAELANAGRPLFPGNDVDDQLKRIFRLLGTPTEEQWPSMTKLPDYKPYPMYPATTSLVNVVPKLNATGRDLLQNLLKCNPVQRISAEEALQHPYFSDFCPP
Sequence of CDK5 complexed with p25 (Q15078 99-307 partner limits assumed): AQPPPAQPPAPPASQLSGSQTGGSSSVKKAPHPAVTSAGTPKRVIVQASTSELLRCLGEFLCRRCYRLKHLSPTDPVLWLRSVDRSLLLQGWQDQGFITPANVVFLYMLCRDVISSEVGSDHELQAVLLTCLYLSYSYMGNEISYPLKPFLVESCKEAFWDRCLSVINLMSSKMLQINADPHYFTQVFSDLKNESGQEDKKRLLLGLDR
Sequence of KDR (P35968 20-1356, species assumed): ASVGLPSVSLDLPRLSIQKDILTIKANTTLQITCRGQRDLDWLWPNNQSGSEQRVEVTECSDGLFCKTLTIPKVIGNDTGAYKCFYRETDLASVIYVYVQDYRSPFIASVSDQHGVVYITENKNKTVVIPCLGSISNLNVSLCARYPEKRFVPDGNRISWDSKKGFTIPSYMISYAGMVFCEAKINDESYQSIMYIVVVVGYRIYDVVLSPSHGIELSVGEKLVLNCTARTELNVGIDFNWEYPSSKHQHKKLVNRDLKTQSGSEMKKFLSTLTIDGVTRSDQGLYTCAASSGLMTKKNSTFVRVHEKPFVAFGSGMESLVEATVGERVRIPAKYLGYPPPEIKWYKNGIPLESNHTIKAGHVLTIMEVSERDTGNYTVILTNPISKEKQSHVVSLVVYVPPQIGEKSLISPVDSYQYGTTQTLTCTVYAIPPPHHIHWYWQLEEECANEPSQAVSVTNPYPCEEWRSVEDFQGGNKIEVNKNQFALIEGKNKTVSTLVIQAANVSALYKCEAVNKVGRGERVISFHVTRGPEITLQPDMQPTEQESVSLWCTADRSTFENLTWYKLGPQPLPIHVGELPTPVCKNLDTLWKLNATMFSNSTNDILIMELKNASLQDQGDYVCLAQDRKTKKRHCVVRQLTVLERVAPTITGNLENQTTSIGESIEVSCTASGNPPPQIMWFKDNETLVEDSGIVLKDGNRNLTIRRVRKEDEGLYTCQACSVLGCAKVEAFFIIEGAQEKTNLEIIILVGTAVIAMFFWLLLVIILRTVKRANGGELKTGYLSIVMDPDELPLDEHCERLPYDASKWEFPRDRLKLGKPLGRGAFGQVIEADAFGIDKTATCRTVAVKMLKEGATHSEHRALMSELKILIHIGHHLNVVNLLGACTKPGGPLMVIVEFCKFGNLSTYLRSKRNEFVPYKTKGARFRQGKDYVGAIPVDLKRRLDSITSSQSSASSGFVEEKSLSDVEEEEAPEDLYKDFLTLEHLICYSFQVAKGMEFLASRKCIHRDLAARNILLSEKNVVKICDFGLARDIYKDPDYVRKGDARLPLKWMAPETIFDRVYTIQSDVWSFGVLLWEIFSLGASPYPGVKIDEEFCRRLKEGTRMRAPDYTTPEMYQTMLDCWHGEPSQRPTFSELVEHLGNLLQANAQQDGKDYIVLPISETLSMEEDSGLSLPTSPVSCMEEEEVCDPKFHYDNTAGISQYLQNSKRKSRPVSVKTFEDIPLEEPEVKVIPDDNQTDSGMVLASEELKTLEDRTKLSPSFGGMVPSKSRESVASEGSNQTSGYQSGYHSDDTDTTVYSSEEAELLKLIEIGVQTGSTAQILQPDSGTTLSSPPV

SMILES	IC50 (CDK5 complexed with p25) [nM]	IC50 (KDR) [nM]	IC50 [1] [nM]	specificity for CDK5 and CDK2 (panel of protein kinases)	LC50 (A549/ATCC) [nM]
Nc1nc(-c2cc(-c3ccc(O)cc3)ccc2O)cc(N2CCCC2CO)n1 (stereo in doubt) [Example 79, 3-[2-Amino-6-(2R-hydroxymethyl-pyrrolidin-1-yl)-pyrimidin-4-yl]-biphenyl-4,4′-diol]	< 500	1000 to 20000	–	–	–
NC(=S)N/N=C/c1cc(-c2ccc(CO)cc2)ccc1O [Example 10, 5-(4-Hydroxymethylphenyl)salicylaldehyde Thiosemicarbazone]	500 to 2000	–	2000 to 5000	–	–
Nc1nccc(-c2cc(-c3ccc(O)cc3)ccc2O)n1 [3-(2-Amino-pyrimidin-4-yl)-biphenyl-4,4′-diol]	–	–	–	highly specific	> 100000
NC(=O)/C=C/c1ccc(O)c(/C=N/NC(N)=S)c1 [Example 39, 3-Formyl-4-hydroxycinnamide, Thiosemicarbazone]	> 5000	–	500 to 2000	–	–
